According to patent US20260297542A1, “HERBICIDE RESISTANT PLANTS” (SYNGENTA CROP PROTECTION AG, priority 2023, published 2026):
Substitutions are numbered along the chain they refer to.

Legend:
Assay in all cases: E. coli hemG growth inhibition by herbicide, AtPPO1 variant
Format in all cases: cell-based
Details in all cases: read-out: percentage growth inhibition
[1] = target: T1, AtPPO1 G481D (Arabidopsis thaliana, UniProt P55826, G481D)
T1 construct: expressed in transfected cells; host or cells: E. coli BL21(DE3) hemG, pET24a plasmid
T1 sequence (P55826 35-537 G481D): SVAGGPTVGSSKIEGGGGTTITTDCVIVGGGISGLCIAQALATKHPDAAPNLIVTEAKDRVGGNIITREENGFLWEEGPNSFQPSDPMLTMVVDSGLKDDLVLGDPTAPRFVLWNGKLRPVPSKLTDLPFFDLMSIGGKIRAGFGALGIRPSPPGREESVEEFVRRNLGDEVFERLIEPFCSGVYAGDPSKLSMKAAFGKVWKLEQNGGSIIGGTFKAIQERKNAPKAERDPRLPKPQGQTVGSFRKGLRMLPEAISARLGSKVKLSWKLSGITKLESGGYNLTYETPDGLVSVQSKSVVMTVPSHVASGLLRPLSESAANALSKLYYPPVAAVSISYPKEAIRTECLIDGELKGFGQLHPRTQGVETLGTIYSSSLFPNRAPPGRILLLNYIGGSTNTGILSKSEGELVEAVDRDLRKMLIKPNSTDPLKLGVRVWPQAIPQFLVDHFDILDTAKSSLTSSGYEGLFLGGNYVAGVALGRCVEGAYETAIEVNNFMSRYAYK
Source text: (§1) A pET24a plasmid containing a DNA sequence encoding a variant of PPO1 derived from Arabidopsis thaliana (AtPPO1), codon-optimised for expression in E. coli and under control of a T7 promoter, was synthesised by Twist Bioscience (SEQ ID NO:3). This plasmid was used as the basis of a Site Saturation Variant Library (SSVL) that substituted the codons at 352 amino acid positions for codons that encoded one of the other 19 amino acids, or removed the codon altogether, resulting in a translation product with a deletion at that position.
(§2) The SSVL was batch-transformed by electroporation into an E. coli BL21(DE3) hemG strain with the hemG gene replaced by CmR conferring resistance to chloramphenicol and spread onto LA supplemented with 50 μg/mL kanamycin, 25 μg/mL chloramphenicol and 20 μg/mL hematin. Each batch consisted of all the plasmids that contained variants at two sites.
(§3) Colonies from batch transformations were inoculated into 500 μL of Terrific broth supplemented with 50 μg/mL kanamycin, 25 μg/mL chloramphenicol and 20 μg/mL hematin in 96-deepwell blocks. Cultures were grown for 24 hours at 37° C. with shaking at 250 rpm.
(§4) Overnight cultures were centrifuged and the cell pellets resuspended with 500 μL of Terrific broth. The resuspended cultures were used at a ratio of 1:100 to inoculate a fresh 96-deepwell block containing 500 μL of Terrific broth supplemented with 0.1 mM IPTG, 50 μg/mL kanamycin, 25 μg/mL chloramphenicol and 6.25 ppm of herbicide […] or E or 0.78 ppm herbicide B or DMSO. Assay cultures were grown for 24 hours at 37° C. with shaking at 250 rpm with the OD600 being measured at 24 hours post inoculation. Strains that grew in both DMSO and herbicide were determined to be herbicide tolerant with the percentage of growth inhibition being calculated as below: […]

[2] = target: T2, AtPPO1 L464Y (Arabidopsis thaliana, UniProt P55826, L464Y)
T2 construct: expressed in transfected cells; host or cells: E. coli BL21(DE3) hemG, pET24a plasmid
T2 sequence (P55826 35-537 L464Y): T1 sequence (P55826 35-537 G481D) with L430Y, D447G
Source text: as §1, §2, §3, §4

[3] = target: T3, AtPPO1 Y362F (Arabidopsis thaliana, UniProt P55826, Y362F)
T3 construct: expressed in transfected cells; host or cells: E. coli BL21(DE3) hemG (pET24a, T7 promoter)
T3 sequence (P55826 35-537 Y362F): T1 sequence (P55826 35-537 G481D) with Y328F, D447G
Source text: as §1, §2, §3, §4

[4] = target: T4, AtPPO1 Y426L (Arabidopsis thaliana, UniProt P55826, Y426L)
T4 construct: expressed in transfected cells; host or cells: E. coli BL21(DE3) hemG (pET24a, T7 promoter)
T4 sequence (P55826 35-537 Y426L): T1 sequence (P55826 35-537 G481D) with Y392L, D447G
Source text: as §1, §2, §3, §4

## CCOC(=O)[C@]1(C)CC(c2cc(-n3c(=O)n(C)c(=S)n(C)c3=O)c(F)cc2Cl)=NO1 [Herbicide D, ethyl (5S)-3-[2-chloro-5-(3,5-dimethyl-2,6-dioxo-4-thioxo-1,3,5-triazinan-1-yl)-4-fluoro-phenyl]-5-methyl-4H-isoxazole-5-carboxylate]
[1]
  inhibition at 6.25 ppm: 20%
[2]
  inhibition at 6.25 ppm: 12%
[3]
  inhibition at 6.25 ppm: 13%
[4]
  inhibition at 6.25 ppm: 25%

## C#CCN1C(=O)C(F)(F)Oc2cc(F)c(-n3c(=O)n(C)c(=S)n(C)c3=O)cc21 [Herbicide B, trifludimoxazin]
[1]
  inhibition at 0.78 ppm: 40%
[2]
  inhibition at 0.78 ppm: 0%
[3]
  inhibition at 0.78 ppm: 34%
[4]
  inhibition at 0.78 ppm: 15%

## CC(C)N(C)S(=O)(=O)NC(=O)c1cc(-n2c(=O)cc(C(F)(F)F)n(C)c2=O)c(F)cc1Cl [Herbicide E, saflufenacil]
[1]
  inhibition at 6.25 ppm: 16%
[2]
  inhibition at 6.25 ppm: 5%
[3]
  inhibition at 6.25 ppm: 43%
[4]
  inhibition at 6.25 ppm: 12%
